Data as given in the supplement of paper PMC10307832.

Experiments:
Experiment in all cases: relative viability (nuclei count vs DMSO), 5 days (fraction); higher = more cells survive
AT9283 + Luminespib = compound: O=C(Nc1c[nH]nc1-c1nc2ccc(CN3CCOCC3)cc2[nH]1)NC1CC1 [AT9283] + CCNC(=O)c1noc(-c2cc(C(C)C)c(O)cc2O)c1-c1ccc(CN2CCOCC2)cc1 [Luminespib] (partner 0.01 µM)
Outline: (§1)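 Relative viability is defined as nuclei in treated wells over nuclei in vehicle wells. Duplicate plates were run and medians reported. Lung cancer cell lines in 1536-well plates were dosed by pin tool one day after seeding, with one drug or with a fixed anchor-drug dose plus five library-drug doses (not always all listed) in √10 steps, and nuclei were counted after 5 days.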

AT9283 + AZD7762 = compound: O=C(Nc1c[nH]nc1-c1nc2ccc(CN3CCOCC3)cc2[nH]1)NC1CC1 [AT9283] + NC(=O)Nc1cc(-c2cccc(F)c2)sc1C(=O)N[C@H]1CCCNC1 [AZD7762] (partner 0.2 µM)
Outline: as §1

AT9283 + Decitabine = compound: O=C(Nc1c[nH]nc1-c1nc2ccc(CN3CCOCC3)cc2[nH]1)NC1CC1 [AT9283] + Nc1ncn([C@H]2C[C@H](O)[C@@H](CO)O2)c(=O)n1 [Decitabine] (partner 2 µM)
Outline: as §1

Erlotinib + Phenformin = compound: C#Cc1cccc(Nc2ncnc3cc(OCCOC)c(OCCOC)cc23)c1 [Erlotinib] + N=C(N)NC(=N)NCCc1ccccc1 [Phenformin] (partner 250 µM)
Outline: as §1

Erlotinib + Linsitinib = compound: C#Cc1cccc(Nc2ncnc3cc(OCCOC)c(OCCOC)cc23)c1 [Erlotinib] + C[C@]1(O)C[C@@H](c2nc(-c3ccc4ccc(-c5ccccc5)nc4c3)c3c(N)nccn32)C1 [Linsitinib] (partner 1 µM)
Outline: as §1

Row | Cell Line | relative viability (AT9283 + Luminespib; first compound 0.003 µM) | relative viability (AT9283 + Luminespib; first compound 0.03 µM) | relative viability (AT9283 + Luminespib; first compound 0.09487 µM) | relative viability (AT9283 + Luminespib; first compound 0.3 µM) | relative viability (AT9283 + AZD7762; first compound 0.003 µM) | relative viability (AT9283 + AZD7762; first compound 0.03 µM) | relative viability (AT9283 + AZD7762; first compound 0.09487 µM) | relative viability (AT9283 + AZD7762; first compound 0.3 µM) | relative viability (AT9283 + Decitabine; first compound 0.003 µM) | relative viability (AT9283 + Decitabine; first compound 0.03 µM) | relative viability (AT9283 + Decitabine; first compound 0.09487 µM) | relative viability (AT9283 + Decitabine; first compound 0.3 µM) | relative viability (Erlotinib + Phenformin; first compound 0.02 µM) | relative viability (Erlotinib + Phenformin; first compound 0.2 µM) | relative viability (Erlotinib + Phenformin; first compound 0.6325 µM) | relative viability (Erlotinib + Phenformin; first compound 2 µM) | relative viability (Erlotinib + Linsitinib; first compound 0.02 µM) | relative viability (Erlotinib + Linsitinib; first compound 0.6325 µM) | relative viability (Erlotinib + Linsitinib; first compound 2 µM) | relative viability (Erlotinib + Linsitinib; first compound 0.2 µM)
1 | LCLC-97TM1 | 0.662 | 0.634 | 0.137 | 0.157 | 0.305 | 0.102 | 0.0858 | 0.0762 | 0.199 | 0.175 | 0.104 | 0.089 | 0.405 | 0.412 | 0.439 | 0.379 | 0.212 | 0.196 | 0.196 | –
2 | NCI-H2405 | 0.662 | 0.625 | 0.352 | 0.331 | 0.771 | 0.566 | 0.208 | 0.163 | 0.732 | 0.725 | 0.381 | 0.24 | 0.449 | 0.347 | 0.401 | 0.404 | 1.01 | 0.994 | 0.768 | –
3 | NCI-H647 | 0.152 | 0.201 | 0.169 | 0.183 | 0.524 | 0.13 | 0.0611 | 0.0591 | 0.427 | 0.401 | 0.205 | 0.127 | 0.586 | 0.476 | 0.632 | 0.353 | 1.2 | 1.19 | 0.971 | 1.15
